Tests used:
Type in all cases: in vivo
[1] = test system: Blumeria graminis f. sp. tritici; test: Test A: wheat powdery mildew, preventive spray on wheat seedlings, visual disease rating; conditions: preventive spray at 40 ppm, rated 8 days after inoculation; for pest or weed control at 40 ppm: Blumeria graminis, 192 h, read-out: Test A disease control rating (100 = 100% disease control, 0 = no disease control relative to the controls)
Source text: General protocol for preparing test suspensions for Tests A-C: the test compounds were first dissolved in acetone in an amount equal to 11% of the final volume and then suspended at the desired concentration (in ppm) in acetone and purified water (50/50 mix by volume) containing 250 ppm of the surfactant Trem® 014 (polyhydric alcohol esters). The resulting test suspensions were then used in Tests A-C. Spraying a 40 ppm test suspension to the point of run-off on the test plants was the equivalent of a rate of 800 g/ha. The test suspension was sprayed to the point of run-off on wheat seedlings. The following day the seedlings were inoculated with a spore dust of Blumeria graminis f. sp. tritici, (the causal agent of wheat powdery mildew) and incubated in a growth chamber at 20° C. for 8 days, after which time disease ratings were visually made. Results for Tests A-C are given in Table A. In the Table, a rating of 100 indicates 100% disease control and a rating of 0 indicates no disease control (relative to the controls). A dash (-) indicates no test results. All results are from applications of 40 ppm.

Septoria tritici = test: Test B: wheat leaf blotch, preventive spray on wheat seedlings, visual disease rating; conditions: preventive spray at 40 ppm, rated after 48 h + 19 days; for pest or weed control at 40 ppm: Zymoseptoria tritici, 504 h, read-out: Test B disease control rating (100 = 100% disease control, 0 = no disease control relative to the controls)
Source text: General protocol for preparing test suspensions for Tests A-C: the test compounds were first dissolved in acetone in an amount equal to 11% of the final volume and then suspended at the desired concentration (in ppm) in acetone and purified water (50/50 mix by volume) containing 250 ppm of the surfactant Trem® 014 (polyhydric alcohol esters). The resulting test suspensions were then used in Tests A-C. Spraying a 40 ppm test suspension to the point of run-off on the test plants was the equivalent of a rate of 800 g/ha. The test suspension was sprayed to the point of run-off on wheat seedlings. The following day the seedlings were inoculated with a spore suspension of Septoria tritici (the causal agent of wheat leaf blotch) and incubated in a saturated atmosphere at 20° C. for 48 h, and then moved to a growth chamber at 20° C. for 19 days, after which time disease ratings were visually made. Results for Tests A-C are given in Table A. In the Table, a rating of 100 indicates 100% disease control and a rating of 0 indicates no disease control (relative to the controls). A dash (-) indicates no test results. All results are from applications of 40 ppm.

Botrytis cinerea = test: Test C: tomato botrytis, preventive spray on tomato seedlings, visual disease rating; conditions: preventive spray at 40 ppm, rated after 48 h + 3 days; for pest or weed control at 40 ppm: Botrytis cinerea, 120 h, read-out: Test C disease control rating (100 = 100% disease control, 0 = no disease control relative to the controls)
Source text: General protocol for preparing test suspensions for Tests A-C: the test compounds were first dissolved in acetone in an amount equal to 11% of the final volume and then suspended at the desired concentration (in ppm) in acetone and purified water (50/50 mix by volume) containing 250 ppm of the surfactant Trem® 014 (polyhydric alcohol esters). The resulting test suspensions were then used in Tests A-C. Spraying a 40 ppm test suspension to the point of run-off on the test plants was the equivalent of a rate of 800 g/ha.
The test suspension was sprayed to the point of run-off on tomato seedlings. The following day the seedlings were inoculated with a spore suspension of Botrytis cinerea (the causal agent of tomato botrytis) and incubated in saturated atmosphere at 20° C. for 48 h, and then moved to a growth chamber at 27° C. for 3 additional days, after which time disease ratings were visually made.
Results for Tests A-C are given in Table A. In the Table, a rating of 100 indicates 100% disease control and a rating of 0 indicates no disease control (relative to the controls). A dash (-) indicates no test results. All results are from applications of 40 ppm.

`CCC(Oc1cnc2ccc(F)cc2c1)C(=O)NC(C)(C)C` (stereo not drawn) [Compound 45] was tested, and the pest or weed control at 40 ppm [1] was 84%, the pest or weed control at 40 ppm (Septoria tritici) was 42% and the pest or weed control at 40 ppm (Botrytis cinerea) was 98%.
In the case of `COCC(C)(C)NC(=O)C(OC)Oc1cnc2ccc(Br)cc2c1` (stereo not drawn) [Compound 154], the “Test A disease control rating (100 = 100% disease control, 0 = no disease control relative to the controls)” value [1] was 91%, the “Test B disease control rating (100 = 100% disease control, 0 = no disease control relative to the controls)” value (Septoria tritici) was 99% and the “Test C disease control rating (100 = 100% disease control, 0 = no disease control relative to the controls)” value (Botrytis cinerea) was 94%.
`CCC(Oc1cc2cc(F)ccc2cn1)C(=O)NC(C)(C)C` (stereo not drawn) [Compound 66] was tested, and the “Test A disease control rating (100 = 100% disease control, 0 = no disease control relative to the controls)” value [1] was 79%, the “Test B disease control rating (100 = 100% disease control, 0 = no disease control relative to the controls)” value (Septoria tritici) was 0% and the “Test C disease control rating (100 = 100% disease control, 0 = no disease control relative to the controls)” value (Botrytis cinerea) was 88%.
For `C#CC(C)(C)NC(=O)C(CC)Oc1cnc2ccc(Cl)cc2c1` (stereo not drawn) [Compound 41], the “Test A disease control rating (100 = 100% disease control, 0 = no disease control relative to the controls)” value [1] was 0%, the “Test B disease control rating (100 = 100% disease control, 0 = no disease control relative to the controls)” value (Septoria tritici) was 96% and the “Test C disease control rating (100 = 100% disease control, 0 = no disease control relative to the controls)” value (Botrytis cinerea) was 96%.
In the case of `CCC(Oc1ccc2ccc(OC)cc2c1)C(=O)NC(C)(C)C` (stereo not drawn) [Compound 3, N-(1,1-dimethylethyl)-2-[(7-methoxy-2-naphthalenyl)oxy]butan amide], the pest or weed control at 40 ppm [1] was 100%, the pest or weed control at 40 ppm (Septoria tritici) was 99% and the pest or weed control at 40 ppm (Botrytis cinerea) was 99%.
For `CCC(Oc1ccc2ccc(C#N)cc2c1)C(=O)NC(C)(C)COCOC` (stereo not drawn) [Compound 22, 2-[(7-cyano-2-naphthalenyl)oxy]-N-[2-(methoxymethoxy)-1,1-dimethylethyl]butanamide], the pest or weed control at 40 ppm [1] was 93%, the pest or weed control at 40 ppm (Septoria tritici) was 100% and the pest or weed control at 40 ppm (Botrytis cinerea) was 100%.
`CCC(Oc1ccc2ccc(Br)cc2c1)C(=O)NC(C)(C)CF` (stereo not drawn) [Compound 26, 2-[(7-bromo-2-naphthalenyl)oxy]-N-(2-fluoro-1,1-dimethylethyl)butanamide] showed a pest or weed control at 40 ppm [1] of 100%, a pest or weed control at 40 ppm (Septoria tritici) of 100% and a pest or weed control at 40 ppm (Botrytis cinerea) of 99%.
`CCOc1ccc2ccc(OC(OCC)C(=O)NC(C)(C)COC)cc2c1` (stereo not drawn) [Compound 120] was tested, and the “Test A disease control rating (100 = 100% disease control, 0 = no disease control relative to the controls)” value [1] was 90%, the “Test B disease control rating (100 = 100% disease control, 0 = no disease control relative to the controls)” value (Septoria tritici) was 99% and the “Test C disease control rating (100 = 100% disease control, 0 = no disease control relative to the controls)” value (Botrytis cinerea) was 98%.
With `CCC(Oc1cnc2ccc(F)cc2c1)C(=O)NC(C)(C)COC` (stereo not drawn) [Compound 54] the “Test A disease control rating (100 = 100% disease control, 0 = no disease control relative to the controls)” value [1] was 0%, the “Test B disease control rating (100 = 100% disease control, 0 = no disease control relative to the controls)” value (Septoria tritici) was 71% and the “Test C disease control rating (100 = 100% disease control, 0 = no disease control relative to the controls)” value (Botrytis cinerea) was 0%.
With `CCC(Oc1cnc2ccc(Br)cc2c1)C(=O)NC(C)(C)C` (stereo not drawn) [Compound 37, 2-[(6-bromo-3-quinolinyl)oxy]-N-(1,1-dimethylethyl)butanamide] the pest or weed control at 40 ppm [1] was 89%, the pest or weed control at 40 ppm (Septoria tritici) was 100% and the pest or weed control at 40 ppm (Botrytis cinerea) was 99%.
In the case of `CCC(Oc1cnc2ccc(I)cc2c1)C(=O)NC(C)(C)COC` (single isomer, unassigned) [Compound 61], the “Test A disease control rating (100 = 100% disease control, 0 = no disease control relative to the controls)” value [1] was 98%, the “Test B disease control rating (100 = 100% disease control, 0 = no disease control relative to the controls)” value (Septoria tritici) was 100% and the “Test C disease control rating (100 = 100% disease control, 0 = no disease control relative to the controls)” value (Botrytis cinerea) was 99%.
`CCC(Oc1ccc2ccc(Br)cc2c1)C(=O)NC1(C)CC1` (stereo not drawn) [Compound 13] was tested, and the pest or weed control at 40 ppm [1] was 50%, the pest or weed control at 40 ppm (Septoria tritici) was 98% and the pest or weed control at 40 ppm (Botrytis cinerea) was 99%.
For `CCOCC(C)(C)NC(=O)C(CC)Oc1cnc2ccc(I)cc2c1` (stereo not drawn) [Compound 55], the “Test A disease control rating (100 = 100% disease control, 0 = no disease control relative to the controls)” value [1] was 96%, the “Test B disease control rating (100 = 100% disease control, 0 = no disease control relative to the controls)” value (Septoria tritici) was 99% and the “Test C disease control rating (100 = 100% disease control, 0 = no disease control relative to the controls)” value (Botrytis cinerea) was 86%.
For `CCCOc1ccc2ccc(OC(CC)C(=O)NC(C)(C)COC)cc2c1` (stereo not drawn) [Compound 127], the “Test A disease control rating (100 = 100% disease control, 0 = no disease control relative to the controls)” value [1] was 94%, the “Test B disease control rating (100 = 100% disease control, 0 = no disease control relative to the controls)” value (Septoria tritici) was 99% and the “Test C disease control rating (100 = 100% disease control, 0 = no disease control relative to the controls)” value (Botrytis cinerea) was 99%.
